Source: patent US10253041B2, “7-phenylethylamino-4H-pyrimido[4,5-d][1,3]oxazin-2-one compounds and their use as mutant IDH1 inhibitors” (Eli Lilly and Company, priority 2015, dated 2019)
Changes are numbered by the printed parent chain.

Columns and labels:
[1] = target: T1, IDH1/R132H (Homo sapiens, UniProt O75874, R132H); experiment: Biochemical assay for IDH1 R132H mutant enzyme (2HG by RapidFire MS); details: mean ± standard deviation of the mean; 90 minutes reaction
T1 construct: His-tag (N); made in house; host or cells: E. coli
T1 sequence (O75874 whole entry R132H): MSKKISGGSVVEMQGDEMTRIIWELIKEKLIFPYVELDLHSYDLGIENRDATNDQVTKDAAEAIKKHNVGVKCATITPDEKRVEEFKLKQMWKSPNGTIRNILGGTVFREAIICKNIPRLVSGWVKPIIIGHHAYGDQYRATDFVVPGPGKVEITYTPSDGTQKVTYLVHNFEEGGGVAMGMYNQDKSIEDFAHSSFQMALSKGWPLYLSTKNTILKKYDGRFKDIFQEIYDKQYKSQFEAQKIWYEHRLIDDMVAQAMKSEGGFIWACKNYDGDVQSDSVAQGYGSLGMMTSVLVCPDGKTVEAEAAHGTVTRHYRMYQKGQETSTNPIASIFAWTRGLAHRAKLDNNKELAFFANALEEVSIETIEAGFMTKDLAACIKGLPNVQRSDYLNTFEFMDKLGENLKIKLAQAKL
Protocol: (§1) IDH1-R132H, IDH1-R132C, IDH2-R172K and IDH2-R140Q mutant enzymes catalyze the conversion of αKG to 2HG. 2HG is analyzed using in-line solid phase extraction and mass spectrometry. This analysis is carried out in a RapidFire® instrument coupled to a 6460 triple quadrupole mass spectrometer (G6460A Agilent).
(§2) IDH1 mutant (R132H and R132C) and IDH2 mutant (R140Q and R172K) proteins containing N-terminal His-tag are expressed in E. coli and purified using nickel affinity chromatography. The enzyme assays are carried out in V-bottom 96 well polypropylene plates containing 100 mM Tris-HCl buffer, 1 mM DTT, 0.005% TRITON™ X-100, 120 mM NaCl. For IDH1 R132H, α-ketoglutarate, NADPH and MnCl2 are included at final concentrations of 300 μM, 2.5 μM and 300 μM respectively. For IDH1 R132C, α-ketoglutarate, NADPH and MnCl2 are included at final concentrations of 100 μM, 10 μM and 100 μM respectively. For IDH2 R172K, α-ketoglutarate, NADPH and MnCl2 are included at final concentrations of 150 μM, 10 μM and 150 μM respectively. For IDH2 R140Q, α-ketoglutarate, NADPH and MnCl2 are included at final concentrations of 3000 μM, 10 μM and 100 μM respectively. Final pH=7.0. Test compound dissolved in DMSO stock is diluted in the reaction mix at a final DMSO concentration of 4%. Compounds are tested in dose-response format. The assay is started by addition of enzyme. Enzymes are used at the following final concentrations: IDH1 R132H, 2 nM; IDH1 R132C, 0.5 nM; IDH2 R172K, 1.2 nM; IDH2 R140Q, 1.2 nM. After 90 minutes the reaction is quenched by adding ACN (50:50) containing 3-hydroxy-1,5-pentanedioic-2,2,3,4,4-d5 acid (5d5-3HG) as an internal standard for mass spectrometry analysis and quantitation of reaction product. 2-Hydroxyglutarate (2HG) in quenched samples is separated using strong anionic exchange column chromatography (Phenomenex Strata-X-A SecurityGuard) and analyzed by mass spectrometry in a 6460 triple quadrupole mass spectrometer (G6460A Agilent). The 2HG signal detected is transformed into an analyte concentration using a calibration curve generated using known 2HG concentrations. […] IC50 values are obtained from the individual % inhibition values at different compound concentrations using a 4-parameter equation. These calculations are carried out using Activity Base (IDBS) or Screener (Genedata) data analysis programs.

[2] = target: T2, IDH2/R172K (Homo sapiens, UniProt P48735, R172K); experiment: Biochemical assay for IDH2 R172K mutant enzyme (2HG by RapidFire MS); details: mean ± standard deviation of the mean; 90 minutes reaction
T2 construct: His-tag (N); made in house; host or cells: E. coli
T2 sequence (P48735 40-452 R172K): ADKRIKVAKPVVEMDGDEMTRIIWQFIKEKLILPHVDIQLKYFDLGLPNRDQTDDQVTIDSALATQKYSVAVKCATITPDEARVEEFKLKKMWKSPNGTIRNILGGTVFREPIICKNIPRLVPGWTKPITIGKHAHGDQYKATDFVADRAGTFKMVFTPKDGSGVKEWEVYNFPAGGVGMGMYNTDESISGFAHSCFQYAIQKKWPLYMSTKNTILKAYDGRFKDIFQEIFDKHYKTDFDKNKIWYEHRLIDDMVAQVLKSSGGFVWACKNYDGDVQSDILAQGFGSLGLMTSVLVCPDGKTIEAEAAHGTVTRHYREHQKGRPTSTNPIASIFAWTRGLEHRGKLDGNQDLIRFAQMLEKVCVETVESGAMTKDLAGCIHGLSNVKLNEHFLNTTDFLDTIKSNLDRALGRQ
Protocol: as §1, §2

[3] = target: T3, IDH2 Wild-Type (Homo sapiens, UniProt P48735); experiment: Biochemical assay for wild-type IDH2 enzyme (αKG by LC-MS); details: mean ± standard deviation of the mean
T3 construct: His-tag (N); made in house; host or cells: E. coli
T3 sequence (P48735 40-452): T2 sequence (P48735 40-452 R172K) with K133R
Protocol: IDH1 and IDH2 enzymes catalyze the conversion of isocitrate to αKG. Wild-type IDH1 (National Center for Biotechnology Information, Accession: NP_001269316.1) and IDH2 (National Center for Biotechnology Information, Accession: EAX02082.1) proteins containing N-terminal His-tag are expressed in E. coli and purified using nickel affinity chromatography. The enzyme assays are carried out in V-bottom 96 well polypropylene plates containing 100 mM Tris-HCl buffer at pH 7.5, 1 mM DTT, 0.005% TRITON™ X-100, 120 mM NaCl. For the IDH1 wild-type assay isocitrate, NADP^+ and MnCl2 are included at the concentrations of 85 μM, 50 μuM and 20 μM respectively. For the IDH2 wild-type assay isocitrate, NADP^+ and MnCl2 are included at the concentrations of 30 μM, 50 μM and 10 μM respectively. Inhibitors dissolved in a DMSO stock solution are diluted in the reaction mixture at a final DMSO concentration of 4%. The enzyme assay is terminated (quenched) by adding ACN (50:50) containing d6-2-ketopentanedioic acid (d6-αKG) as an internal standard for mass spectrometry analysis. Ten microliters of reaction mixture is combined with 100 μL of water, 50 μL of 1 M O-benzylhydroxylamine in pyridine buffer (8.6% pyridine, pH 5), and 50 μL of 1 M N-(3-dimethylaminopropyl)-N-ethylcarbodiimide hydrochloride (EDC) in pyridine buffer. Following derivatization at room temperature for one hour, samples are extracted with 600 μL of EtOAc. Four hundred […] of the upper layer is removed, dried under heated nitrogen and reconstituted with 100 μL of MeOH/water (1:1). Ten μL of derivatized sample is injected onto an LC-MS system consisting of a Shimadzu Prominence 20A HPLC system and a The Thermo Quantum Ultra™ triple quadrupole mass spectrometer. Analytes are separated on a Waters XBridge™ C18 column (2.1×50 mm, […]) with a flow rate of 0.6 mL/minute. Mobile phase A is 0.1% formic acid in water and mobile phase B is MeOH. The αKG signal detected is transformed into analyte concentration using a calibration curve generated using known αKG concentrations. […] IC50 values are obtained from the individual % inhibition values at different compound concentrations using a 4-parameter equation. These calculations are carried out using Activity Base (IDBS) or Screener (Genedata) data analysis programs.

Row | SMILES | IC50 [1] | IC50 [2] | IC50 [3]
1 | C=CC(=O)N1CCC2(CC1)CN(Cc1ccc([C@H](C)Nc3ncc4c(n3)N(C(C)C)C(=O)OC4)cc1)C2 [Example 8, 1-Isopropyl-7-[[(1S)-1-[4-[(7-prop-2-enoyl-2,7-diazaspiro[3.5]nonan-2-yl)methyl]phenyl]ethyl]amino]-4H-pyrimido[4,5-d][1,3]oxazin-2-one] | 290 ± 170 nM | 51700 nM | 69400 ± 24900 nM
2 | C=CC(=O)N1CCN(Cc2ccc([C@H](C)Nc3ncc4c(n3)N(CCF)C(=O)OC4)cc2)CC1 [Example 21, 1-(2-fluoroethyl)-7-[[(1S)-1-[4-[(4-prop-2-enoylpiperazin-1-yl)methyl]phenyl]ethyl]amino]-4H-pyrimido[4,5-d][1,3]oxazin-2-one] | 323 ± 76 nM | 10400 ± 7000 nM | 31100 ± 2100 nM
3 | C=CC(=O)N1CC(COc2ccc([C@H](C)Nc3ncc4c(n3)N(CC)C(=O)OC4)cc2)C1 [Example 17, 1-Ethyl-7-[[(1S)-1-[4-[(1-prop-2-enoylazetidin-3-yl)methoxy]phenyl]ethyl]amino]-4H-pyrimido[4,5-d][1,3]oxazin-2-one] | 114 ± 38 nM | 1740 nM | 950 ± 1290 nM
4 | C=CC(=O)N1CC2(CN(Cc3ccc([C@H](C)Nc4ncc5c(n4)N(CC(C)C)C(=O)OC5)cc3)C2)C1 [Example 5, 1-Isobutyl-7-[[(1S)-1-[4-[(2-prop-2-enoyl-2,6-diazaspiro[3.3]heptan-6-yl)methyl]phenyl]ethyl]amino]-4H-pyrimido[4,5-d][1,3]oxazin-2-one] | 56 ± 15.7 nM | 13600 nM | 7460 ± 7520 nM
5 | C=CC(=O)N1CCN(Cc2ccc([C@H](C)Nc3ncc4c(n3)N(C(C)C)C(=O)OC4)cc2)CC1 [Example 1, 1-Isopropyl-7-[[(1S)-1-[4-[(4-prop-2-enoylpiperazin-1-yl)methyl]phenyl]ethyl]amino]-4H-pyrimido[4,5-d][1,3]oxazin-2-one] | 29.1 ± 10.7 nM | 1670 nM | 10700 ± 1650 nM
6 | C=CC(=O)N1CCC(N(C)Cc2ccc([C@H](C)Nc3ncc4c(n3)N(CC)C(=O)OC4)cc2)CC1 [Example 12, 1-Ethyl-7-[[(1S)-1-[4-[[methyl-(1-prop-2-enoyl-4-piperidyl)amino]-methyl]phenyl]ethyl]amino]-4H-pyrimido[4,5-d][1,3]oxazin-2-one] | 515 ± 86 nM | 25300 nM | 6100 ± 13300 nM
7 | C=CC(=O)N1CC(CCc2ccc([C@H](C)Nc3ncc4c(n3)N(CC)C(=O)OC4)cc2)C1 [Example 7, 1-Ethyl-7-[[(1S)-1-[4-[2-(1-prop-2-enoylazetidin-3-yl)ethyl]phenyl]ethyl]amino]-4H-pyrimido[4,5-d][1,3]oxazin-2-one] | 39.7 ± 26 nM | 482 nM | 8690 ± 10200 nM
